Results on 1 substance are retold here after patent US8470964B2, “Peptides derived from NCAM (FGLs)” (Enkam Pharmaceuticals A/S, priority 2007, dated 2013).

Entries after “also recorded” stand apart in the source; their conditions may differ. Where no end group is shown, it is not given here.

Data set [1] has as its system rat model of (25-35) β-amyloid induced neurotoxicity. Kind of data set: (25-35) β-amyloid induced neurotoxicity, subcutaneous administration: SRT and neuropathology. The data set is classed as in vivo. Here is the method:
FIG. 8. The effect of FGLs (administered subcutaneously at the stated doses), or vehicle on the development of cognitive impairment (deficit in short-term social memory) and neurodegeneration after (25-35) β-amyloid (A-β) fragment neurointoxication. Comparisons of RR values to a hypothetical value 0.50 were carried using one-sample t-test. Intergroup comparisons between A-β groups were carried out using One Way ANOVA and Newman-Keuls post-hoc test and comparison between A-β vehicle and sham-operated animals by un-paired t-test.
In the rat model of (25-35) β-amyloid induced neurotoxicity (Delobette et al., 1997; Maurice et al., 1996), (25-35) aggregated β-amyloid neurotoxin is injected intracerebroventricularly leading to progressive deterioration of short-term memory (clearly detectable using the Social Recognition Test (SRT) with a 30-minute inter-trial interval (ITI) (Kogan et al., 2000), and to neurodegeneration in cortex and hippocampus characterized by increases in amyloid burden, tau phosphorylation and micro- and macro-glia activation, as well as neuronal loss (Klementiev et al., 2007).
In this study, 3.2, 0.8, 0.2 mg/kg of FGLs or sterile PBS were administered daily by subcutaneous injection. Administration was started 7 days after i.c.v. administration of an aggregated form of the (25-35) β-amyloid peptide fragment and continued until day 28 when the rats were terminated.
The social memory performance was estimated, using the SRT 21-22 days after i.c.v. administration of the β-amyloid fragment.
A significant neuroprotective effect of FGLs was detected in both areas. The minimum effective dose of FGLs for neuroprotection was 0.8 mg/kg, in hippocampus and 0.2 mg/kg in cingulate cortex.

The nature of data set [2]: Visual appearance of peptide diluted in water. The data set is classed as physicochemical. To be noted: 100 mg/ml in water, room temperature. Here is the method:
FIG. 11. Visual appearance of FGLL and FGLs. 100 mg of FGLL and FGLs, respectively were diluted in 1 ml water at room temperature for visual inspection.
FGFL and FGFs were diluted in water at a concentration of 100 mg/ml for visual inspection (FIG. 11). […] In another experiment were 5 mg of FGLL and FGLs respectively diluted in 1 ml water or PBS at room temperature. Light microscopy pictures of the water and PBS solutions of FGLL and FGLs can be seen in FIG. 12. In FIG. 13. is a 90° light-scattering spectra of 100 mg/ml FGFL and FGLs in water showing the difference in intensity between the FGF L and the FGLs, solution.

Data set [3] relates to adult male Wistar rats. The experiment in a line: Morris Water Maze spatial learning. The data set is classed as in vivo, rat. The note with it: 2.5 mg/kg s.c. as a single dose 5, 3 and 1 day prior to training; versus vehicle. Here is the method: FIG. 6. Effects of FGLs on spatial learning in the Morris Water Maze. Rats received FGLs or vehicle subcutaneously as a single dose of 2.5 mg/kg 5, 3 and 1 day prior to first test (trials 1-4 in above graph). The second test (trials 5-8 in above graph) took place the day after the first test. The results were analysed using analysis of variance (ANOVA) and Student's t-test. Data are mean escape latency(s) (±SEM) to find the platform over the 2 training days (t1-t4). *p<0.05, when compared with the Vehicle/Control group at the same time point.
The aim of this study was to investigate whether the subcutaneous administration of FGLs modulates spatial learning in adult male Wistar rats, using the Morris Water Maze as test system.
In the MWM test, rats are evaluated in the task to learn and remember the location of an escape platform hidden just under the water surface. In this study the test set-up was optimised for measuring learning. Rats received FGLs 2.5 mg/kg or vehicle subcutaneously as a single dose 5, 3 and 1 day prior the start of the training in the MWM.

The mark [4] stands for this setting: daily s.c. from day 7, neuropathology at day 28.

As to “FGLs: two identical 11 amino acid peptides (VAENQQGKSKA), forming a dimer through a linker molecule (iminodiacetic acid); peptide amide (VAENQQGKSKA-NH2; not fully specified; also: dimer of two identical peptides through iminodiacetic acid linker, attachment site not given here)”, the “short-term memory deficit in SRT compared to placebo-treated rats” value in data set [1] (0.8 mg/kg s.c. daily, SRT 21-22 days after i.c.v. β-amyloid) is given as “statistically significant reduction in the short-term memory deficit”. Moreover, the “PRESENCE OF A SIGNIFICANT PEPTIDE EFFECT: SRT short-term social recognition memory” value in data set [1] (daily s.c. 0.2, 0.8, 3.2 mg/kg from day 7, SRT 21-22 days after i.c.v. β-amyloid) was “YES (p < 0.01)^1”. Besides, the “EFFECTIVE DOSE OR DOSE RANGE: SRT short-term social recognition memory” value in data set [1] (daily s.c. from day 7, SRT 21-22 days after i.c.v. β-amyloid) was 0.8 mg/kg. Further, in data set [1] (setting [4]), the “EFFECTIVE DOSE OR DOSE RANGE: Density Intact neurons Cingulate cortex” value is 0.8 mg/kg, the “EFFECTIVE DOSE OR DOSE RANGE: Density Intact neurons Hippocampus (CA3)” value is listed as 0.8 mg/kg, the “EFFECTIVE DOSE OR DOSE RANGE: Density damaged neurons Cingulate cortex” value is given as 0.2 mg/kg and the “EFFECTIVE DOSE OR DOSE RANGE: Density damaged neurons Hippocampus (CA3)” value is listed as 0.8 mg/kg. In data set [1] (setting [4]), the “PRESENCE OF A SIGNIFICANT PEPTIDE EFFECT: Density Intact neurons Cingulate cortex” value was “Yes (p < 0.05)^3”, the “PRESENCE OF A SIGNIFICANT PEPTIDE EFFECT: Density Intact neurons Hippocampus (CA3)” value is listed as “YES (P < 0.05)”, the “PRESENCE OF A SIGNIFICANT PEPTIDE EFFECT: Density damaged neurons Cingulate cortex” value is on record as “YES (p < 0.01,” and the “PRESENCE OF A SIGNIFICANT PEPTIDE EFFECT: Density damaged neurons Hippocampus (CA3)” value is recorded as “YES (p < 0.05)^3”. In data set [1] (daily s.c., day 28), the “minimum effective dose for neuroprotection in cingulate cortex” value is 0.2 mg/kg and the “minimum effective dose for neuroprotection in hippocampus” value is given as 0.8 mg/kg. Further, the “β-amyloid burden in the cingulate cortex” value in data set [1] (daily s.c., day 28, large variability among animals) is reported as “Neither the lesion, nor the peptide had significant effects; also recorded: did not reach significance”. Besides, in data set [1] (subcutaneous administration), the “minimum effective dose for neuroprotection” value worked out at 0.2 mg/kg and the “minimum effective dose, social recognition memory deficit” value came to 0.8 mg/kg. Further, the “visual appearance of solution” value in data set [2] is “remained clear”. The “spatial learning in Morris Water Maze (escape latency)” value in data set [3] is reported as “learned significantly faster than vehicle treated ones”.
